From US20040077674A1, “Mappicine analogs, intermediates in the synthesis of mappicine analogs and methods of synthesis of mappicine analogs” (priority 2002, published 2004)

molecular target: T1, RNase H activity of HIV reverse transcriptase (Human immunodeficiency virus type 1 group M subtype B, UniProt P03366); experiment: Fluorescence (FRET)-based RNase H assay of HIV reverse transcriptase; assay type: biochemical, HIV-1; details: 20 μM inhibitor concentration
T1 construct: 2.5 nM of the p51/p66 RT heterodimer in the assay; made in house
Experimental: Recently, a fluorescence-based assay to perform screens in search of HIV RNase H inhibitors has been developed. The assay, which is carried out in 96-well microplates and is adaptable to robotics, is the first high-throughput screen for RNase H and is described in further detail in the Experimental section. HIV-1 RT and human RNase H were cloned, and thus comparative analysis of inhibitor action could be conducted simultaneously.
The assay for RNase H activity of HIV reverse transcriptase was the fluorescence-based assay described in detail in the Experimental section and discussed in U.S. Provisional Patent Application Serial No. 60/318,359. Assays were carried out in the absence and in the presence of mappicine analogs (10 μM or 20 μM final concentration). The results are reported as % residual activity, which is the RNase H activity of the enzyme in the presence of the mappicine analog divided by the RNase H activity of the enzyme in the absence of the mappicine analog, multiplied by 100. Alternatively, the results are reported as % inhibition, which is calculated as the ratio of the RNase H activity of the enzyme in the presence of the mappicine analog to the enzyme activity in the absence of the mappicine analog, multiplied by 100, and then subtracting this number from 100.
Assay for Ribonuclease H Activity Based on Fluorescence Resonance Energy Transfer (FRET)
Preparation of the Fluorophore-RNA/Quencher-DNA Hybrid Duplex Substrate.
The RNA/DNA hybrid duplex substrate for use in the assay comprises an RNA oligonucleotide of sequence 5′-GAU CUG AGC CUG GGA GCU-3′, modified at the 3′-end with Aminolink-2 and derivatized with fluorescein isothiocyanate, to provide a modified RNA oligonucleotide of the sequence 5′-GAU CUG AGC CUG GGA GCU-fluorescein-3′, annealed to a complementary DNA oligonucleotide of the sequence 5′-AGC TCC CAG GCT CAG ATC-3′ modified at the 5′-end with Aminolink-2 and derivatized with the FRET acceptor DABCYL succinimidyl ester, to provide a modified DNA oligonucleotide of the sequence 5′-DABCYL-AGC TCC CAG GCT CAG ATC-3′.
To prepare the 3′-fluorescein-RNA/5′-DABCYL-DNA hybrid duplex substrate, a known amount of 3′-fluorescein-RNA was dissolved in 20 mM Tris buffer (pH 8.0, 37° C.) to provide a final concentration of 5 μM. Two equivalents of the 5′-DABCYL-DNA oligonucleotide were added, and the mixture was heated to 90° C. for 5 min and cooled slowly to room temperature to allow duplex formation. The positioning of the fluorescein donor at the 3′-end of the RNA oligonucleotide and the DABCYL acceptor at the 5′-end of the DNA oligonucleotide provides a very close proximity of the donor and acceptor that results in a very intense quenching of the fluorescein emission in the intact RNA/DNA hybrid duplex substrate due to the spectral overlap of the fluorescence emission of fluorescein with the absorption spectrum of DABCYL. In addition, DABCYL is non-fluorescent, and thus cannot contribute any light emission. Both of these factors result in a very low background and provide a high signal-to-noise in the assay measurements. The ratio of the donor fluorescence in the absence and in the presence of its quencher is approximately fifteen-fold.
Microplate Assay Protocol for the Measurement of RNase H Activity Using the RNA/IDNA Hybrid Duplex Substrate.
Reaction assay mixtures contained 5 μl of a stock solution of 2.5 μM RNA/DNA hybrid duplex substrate added to 85 μl of assay buffer (50 mM Tris, pH 8.0, 37° C., containing 60 mM KCl and 2.5 mM MgCl2), prepared in the wells of a 96-well fluorescence microtiter plate, and warmed to 37° C. using the temperature control of the SpectraMax Gemini XS microplate spectrofluorometer (Molecular Devices). Reactions were started by the addition of 5 μl of a solution of recombinant HIV-1 reverse transcriptase (usually providing a final concentration of 2.5 nM of the p51/p66 RT heterodimer in the assay), and mixing using the automatic mixing function of the microplate spectrofluorometer. […]

Row | Compound | inhibition at 20 µM | % inhibition of RNase H at 20 μM
1 | CCCCc1c2c(nc3ccc(OC(F)(F)F)cc13)-c1cc(C(C)O)c(C)c(=O)n1C2 (stereo not drawn) [Compound 1.6.7, 12-Butyl-7-(1-hydroxyethyl)-8-methyl-2-trifluoromethoxy-11H-indolizino[1,2-b]quinolin-9-one] | 75% | 
2 | Cc1c(C(C)O)cc2n(c1=O)Cc1c-2nc2ccc(OC(F)(F)F)cc2c1-c1ccccc1 (stereo not drawn) [Compound 1.8.7, 7-(1-Hydroxyethyl)-8-methyl-12-phenyl-2-trifluoromethoxy-11H-indolizino[1,2-b]quinolin-9-one] | 80% | 
3 | Cc1ccc2nc3c(c(-c4ccccc4)c2c1)Cn1c-3cc(C(C)O)c(C)c1=O (stereo not drawn) [Compound 1.8.9, 7-(1-Hydroxyethyl)-2,8-dimethyl-1 2-phenyl-11H-indolizino[1,2-b]quinolin-9-one] | 75% | 
4 | CCCCc1c2c(nc3ccc(OC)cc13)-c1cc(C(O)CCC)c(C)c(=O)n1C2 (stereo not drawn) [Compound 2.6.3] |  | 67%
5 | CCCCCc1c2c(nc3ccc(OC)cc13)-c1cc(C(O)CCC)c(C)c(=O)n1C2 (stereo not drawn) [Compound 2.7.3] |  | 60%
6 | CCCC(O)c1cc2n(c(=O)c1C)Cc1c-2nc2ccccc2c1-c1ccccc1 (stereo not drawn) [Compound 2.8.1, 7-(1-Hydroxybutyl)-8-methyl-12-phenyl-11H-indolizino [1,2-b]quinolin-9-one] | 83% | 
7 | CCCC(O)c1cc2n(c(=O)c1C)Cc1c-2nc2ccc(C)cc2c1-c1ccccc1 (stereo not drawn) [Compound 2.8.9, 7-(1-Hydroxybutyl)-2,8-dimethyl-1 2-phenyl-11H-indolizino[1,2-b]quinolin-9-one] | 78% | 
8 | CCCCc1c2c(nc3ccc(OC)cc13)-c1cc(C(O)CC)c(C)c(=O)n1C2 (stereo not drawn) [Compound 3.6.3] |  | 66%
9 | CCCCc1c2c(nc3ccc(C(F)(F)F)cc13)-c1cc(C(O)CC)c(C)c(=O)n1C2 (stereo not drawn) [Compound 3.6.4] |  | 62%
10 | CCCCCc1c2c(nc3c(F)cccc13)-c1cc(C(O)CC)c(C)c(=O)n1C2 (stereo not drawn) [Compound 3.7.8, 4-Fluoro-7-(1-hydroxypropyl)-8-methyl-12-pentyl-1 1H-indolizino [1,2-b]quinolin-9-one] | 82% | 
11 | CCCCCc1c2c(nc3ccc(C)cc13)-c1cc(C(O)CC)c(C)c(=O)n1C2 (stereo not drawn) [Compound 3.7.9, 7-(1-Hydroxypropyl)-2,8-dimethyl-1 2-pentyl-11H-indolizino[1,2-b]quinolin-9-one] | 75% | 
12 | CCC(O)c1cc2n(c(=O)c1C)Cc1c-2nc2ccccc2c1-c1ccccc1 (stereo not drawn) [Compound 3.8.1] |  | 74%
13 | CCC(C)C(O)c1cc2n(c(=O)c1C)Cc1cc3cc(OC(F)(F)F)ccc3nc1-2 (stereo not drawn) [Compound 4.1.7] |  | 55%
14 | CCc1c2c(nc3ccc(C)cc13)-c1cc(C(O)C(C)CC)c(C)c(=O)n1C2 (stereo not drawn) [Compound 4.4.9] |  | 60%
15 | CCCc1c2c(nc3c(F)cccc13)-c1cc(C(O)C(C)CC)c(C)c(=O)n1C2 (stereo not drawn) [Compound 4.5.8] |  | 55%
16 | CCCCCc1c2c(nc3ccc(F)cc13)-c1cc(C(O)C(C)CC)c(C)c(=O)n1C2 (stereo not drawn) [Compound 4.7.2] |  | 58%
17 | CCCCCc1c2c(nc3ccc(OC)cc13)-c1cc(C(O)C(C)CC)c(C)c(=O)n1C2 (stereo not drawn) [Compound 4.7.3] |  | 60%
18 | CCCCCc1c2c(nc3ccc(C(F)(F)F)cc13)-c1cc(C(O)C(C)CC)c(C)c(=O)n1C2 (stereo not drawn) [Compound 4.7.4] |  | 55%
19 | CCCCCc1c2c(nc3ccc(CC)cc13)-c1cc(C(O)C(C)CC)c(C)c(=O)n1C2 (stereo not drawn) [Compound 4.7.5, 2-Ethyl-7-(1-hydroxy-2-methylbutyl)-8-methyl-1 2-pentyl-11H-indolizino[1,2-b]quinolin-9-one] | 100% | 
20 | CCC(C)C(O)c1cc2n(c(=O)c1C)Cc1c-2nc2ccccc2c1-c1ccccc1 (stereo not drawn) [Compound 4.8.1, 7-(1-Hydroxy-2-methylbutyl)-8-methyl-1 2-phenyl-11H-indolizino[1,2-b]quinolin-9-one] | 80% | 

Row | Compound | inhibition at 20 µM | % inhibition of RNase H at 20 μM
21 | CCC(C)C(O)c1cc2n(c(=O)c1C)Cc1c-2nc2ccc(C(F)(F)F)cc2c1-c1ccccc1 (stereo not drawn) [Compound 4.8.4] |  | 74%
22 | CCC(C)C(O)c1cc2n(c(=O)c1C)Cc1c-2nc2ccc(C)cc2c1-c1ccccc1 (stereo not drawn) [Compound 4.8.9] |  | 55%
23 | CCc1c2c(nc3ccc(C(F)(F)F)cc13)-c1cc(C(O)C(C)C)c(C)c(=O)n1C2 (stereo not drawn) [Compound 5.4.4, 1 2-Ethyl-7-(1-hydroxy-2-methylpropyl)-8-methyl-2-trifluoromethyl-11H-indolizino[1,2-b]quinolin-9-one] | 87% | 
24 | CCCCc1c2c(nc3c1cn1c(=O)c(C)c(C(O)C(C)C)cc31)=CC=C(OC)C2 (stereo not drawn) [Compound 5.6.3, 12-Butyl-7-(1-hydroxy-2-methylpropyl)-2-methoxy-8-methyl-1H-indolizino[1,2-b]quinolin-9-one] | 90% | 
25 | CCCCc1c2c(nc3ccc(CC)cc13)-c1cc(C(O)C(C)C)c(C)c(=O)n1C2 (stereo not drawn) [Compound 5.6.5] |  | 100%
26 | Cc1ccc2nc3c(c(-c4ccccc4)c2c1)Cn1c-3cc(C(O)C(C)C)c(C)c1=O (stereo not drawn) [Compound 5.8.9] |  | 69%
27 | Cc1ccc2nc3c(cc2c1)Cn1c-3cc(C(O)C2CCCCC2)c(C)c1=O (stereo not drawn) [Compound 6.1.9] |  | 65%
28 | CCc1c2c(nc3ccccc13)-c1cc(C(O)C3CCCCC3)c(C)c(=O)n1C2 (stereo not drawn) [Compound 6.4.1] |  | 65%
29 | CCc1c2c(nc3ccc(F)cc13)-c1cc(C(O)C3CCCCC3)c(C)c(=O)n1C2 (stereo not drawn) [Compound 6.4.2] |  | 75%
30 | CCc1c2c(nc3ccc(OC)cc13)-c1cc(C(O)C3CCCCC3)c(C)c(=O)n1C2 (stereo not drawn) [Compound 6.4.3] |  | 60%
31 | CCc1c2c(nc3ccc(C(F)(F)F)cc13)-c1cc(C(O)C3CCCCC3)c(C)c(=O)n1C2 (stereo not drawn) [Compound 6.4.4] |  | 65%
32 | CCCCCc1c2c(nc3ccccc13)-c1cc(C(O)C3CCCCC3)c(C)c(=O)n1C2 (stereo not drawn) [Compound 6.7.1] |  | 71%
33 | CCCCCc1c2c(nc3ccc(F)cc13)-c1cc(C(O)C3CCCCC3)c(C)c(=O)n1C2 (stereo not drawn) [Compound 6.7.2, 7-(Cyclohexylhydroxymethyl)-2-fluoro-8-methyl-12-pentyl-11H-indolizino[1,2-b]quinolin-9-one] | 76% | 
34 | CCCCCc1c2c(nc3ccc(OC)cc13)-c1cc(C(O)C3CCCCC3)c(C)c(=O)n1C2 (stereo not drawn) [Compound 6.7.3] |  | 65%
35 | CCCCCc1c2c(nc3ccc(C(F)(F)F)cc13)-c1cc(C(O)C3CCCCC3)c(C)c(=O)n1C2 (stereo not drawn) [Compound 6.7.4] |  | 70%
36 | Cc1c(C(O)C2CCCCC2)cc2n(c1=O)Cc1c-2nc2ccc(C(F)(F)F)cc2c1-c1ccccc1 (stereo not drawn) [Compound 6.8.4, 7-(Cyclohexylhydroxymethyl)-8-methyl-12-phenyl-2-trifluoromethyl-11H-indolizino[1,2-b]quinolin-9-one] | 81% | 
37 | Cc1c(C(O)C2CCCCC2)cc2n(c1=O)Cc1c-2nc2ccc(OC(F)(F)F)cc2c1-c1ccccc1 (stereo not drawn) [Compound 6.8.7, 7-(Cyclohexylhydroxymethyl)-8-methyl-1 2-phenyl-2-trifluoromethoxy-11H-indolizino[1,2-b]quinolin-9-one] | 87% | 
38 | CCc1c2c(nc3c(F)cccc13)-c1cc(C(O)CCC3CCCCC3)c(C)c(=O)n1C2 (stereo not drawn) [Compound 7.4.8] |  | 95%
39 | CCCc1c2c(nc3c(F)cccc13)-c1cc(C(O)CCC3CCCCC3)c(C)c(=O)n1C2 (stereo not drawn) [Compound 7.5.8] |  | 82%
